In patent publication US6632932B1, “Trisazo compound” (Orient Chemical Industries, Ltd., priority 2001, dated 2003):

Columns and labels:
[1] = Evaluation of light resistance of ink jet print (xenon fade meter); type: physicochemical; conditions: amount of energy required for OD value (about 1.0) to decrease to 70%; ink with 6.0% by weight dye, pH 9.0-9.5 (ammonia), printed on PM Photo Paper; xenon 36 W/m^2 (300 to 400 nm), 24° C., 55% humidity
From the text: Preparation of Samples for Test:
An ink, the pH of which was adjusted between 9.0 and 9.5 with ammonia, prepared using the composition shown above was set into an ink jet printer (EM-900C manufactured by Seiko Epson Corp.). A piece of paper specially designed for ink jet (PM Photo Paper (Model: KA420PSK) manufactured by Seiko Epson Corp.) was printed with the ink, and it was used as a sample to be tested.
Light irradiation: The sample to be tested was set to a holder. Light irradiation with a xenon fade meter was carried out under the following condition:
Method for evaluation: The sample is taken out after each irradiation of an energy of 3000 kJ/m^2, and a part with an optical density (OD value) of about 1.0 is measured with a Macbeth density meter. The total amount of light irradiated at the time when the OD value has become 70% the original value is calculated.
Criterion for evaluation: The amount of energy required for the OD value to decrease to 70%.

[2] = Mutagenicity test (Ames test)
Solubility in water = type: physicochemical; conditions: under an ammoniacal alkaline condition

| Compound | Evaluation of light resistance [1] | other results |
| --- | --- | --- |
| Nc1c(N=Nc2ccccc2C(=O)O)cc(S(=O)(=O)O)c2cc(S(=O)(=O)O)c(/N=N\c3ccc4cc(S(=O)(=O)O)c(N=Nc5ccccc5C(=O)O)c(O)c4c3)c(O)c12 [Trisazo compound (14)] | ⊚ (Not less than 70,000 kJ/m^2) |  |
| Cc1cc(-c2ccc(N=Nc3c(S(=O)(=O)O)cc4cc(S(=O)(=O)O)c(N=Nc5ccccc5)c(O)c4c3N)c(C)c2)ccc1N=Nc1ccc(N)cc1N [C. I. Direct Black 154, reference compound] | × |  |
| COc1ccc(N=Nc2c(S(=O)(=O)O)cc3c(S(=O)(=O)O)cc(N=Nc4ccc5cc(S(=O)(=O)O)c(N=Nc6cc(Cl)ccc6C(=O)O)c(O)c5c4)c(N)c3c2O)c(S(=O)(=O)O)c1 [Trisazo compound (6)] | ◯ |  |
| Nc1cc(O)ccc1N=Nc1ccc(Nc2ccc(N=Nc3c(S(=O)(=O)O)cc4cc(S(=O)(=O)O)c(N=Nc5ccccc5)c(O)c4c3N)cc2S(=O)(=O)O)cc1 [C. I. Direct Black 168, reference compound] | Δ (Not less than 10,000 kJ/m^2 and less than 40,000 kJ/m^2) |  |
| Nc1c(N=Nc2ccc3c(O)c(N=Nc4ccccc4C(=O)O)c(S(=O)(=O)O)cc3c2)cc(S(=O)(=O)O)c2cc(S(=O)(=O)O)c(N=Nc3ccccc3C(=O)O)c(O)c12 [Trisazo compound (2)] | ⊚ (Not less than 70,000 kJ/m^2) |  |
| Nc1c(N=Nc2ccc3cc(S(=O)(=O)O)c(N=Nc4ccccc4C(=O)O)c(O)c3c2)cc(S(=O)(=O)O)c2cc(S(=O)(=O)O)c(N=Nc3ccccc3C(=O)O)c(O)c12 [Trisazo compound (1)] | ⊚ (Not less than 70,000 kJ/m^2) | mutagenicity test (Ames test), ratio [2]: 1.27 times; result of mutagenicity test (Ames test) [2]: negative; solubility in water (Solubility in water): 14% |
| Nc1c(N=Nc2ccc3cc(S(=O)(=O)O)c(N=Nc4ccccc4C(=O)O)c(O)c3c2)cc(S(=O)(=O)O)c2cc(S(=O)(=O)O)c(N=Nc3cc(C(=O)O)ccc3C(=O)O)c(O)c12 [Trisazo compound (8)] | ⊚ (Not less than 70,000 kJ/m^2) |  |
| Nc1c(N=Nc2ccc3cc(S(=O)(=O)O)c(N=Nc4cccc(C(=O)O)c4)c(O)c3c2)cc(S(=O)(=O)O)c2cc(S(=O)(=O)O)c(N=Nc3ccccc3C(=O)O)c(O)c12 [Trisazo compound (11)] | ◯ |  |
| CCOc1ccc(N=Nc2c(S(=O)(=O)O)cc3ccc(N=Nc4cc(S(=O)(=O)O)c5cc(S(=O)(=O)O)c(N=Nc6ccccc6C(=O)O)c(O)c5c4N)cc3c2O)cc1 [Trisazo compound (5)] | ⊚ (Not less than 70,000 kJ/m^2) |  |
